pIC50: −log10 of the molar value.
Tests used:
[1] = tested on: HeLa; test: Cytotoxicity against human HeLa cells after 48 hrs by WST8 assay; type: functional, cell-based
[2] = tested on: HL-60; test: Cytotoxicity against human HL60 cells after 48 hrs by WST8 assay; type: functional, cell-based; settings: HL-60, 48 h

`CO[C@H]1[C@H](O[C@@H]2c3c(cc4c(c3O)C(=N)c3c(O)cccc3C4=O)C(=O)[C@@](C)(O)[C@H]2OC)O[C@@H](C)[C@H](O)[C@H]1O` was tested, and the pIC50 [1] was < 3.70 and the pIC50 [2] was < 3.70.
With `CO[C@H]1[C@H](O[C@@H]2c3c(cc4c(c3O)C(=O)c3c(O)cccc3C4=O)C(=O)[C@@](C)(O)[C@H]2OC)O[C@@H](C)[C@H](O)[C@H]1O` [ARANCIAMYCIN] the pIC50 [1] was 5.57 and the pIC50 [2] was 5.39.
`CO[C@H]1[C@H](Oc2cc(C)cc3cc4c(c(O)c23)C(=O)c2c(O)cccc2C4=O)O[C@@H](C)[C@H](O)[C@H]1O` [TETRACENOQUINOCIN] showed a pIC50 [1] of 3.92 and a pIC50 [2] of 3.68.
